PMC2766634 (Journal of medicinal chemistry, 2009)
Several values for one entry are separate records, joined by “and”; a condition that tells them apart may be missing. Equal values may be shown once. Marks after values point to notes of the source that are not given here.

How the values were obtained:
[1] = Cyclic voltammetry in DMSO; assay type: physicochemical; details: for E1/2 in DMSO (half-wave potential, 0/−1 reduction), mean ± SE: cyclic voltammetry, 0.10 M NBu4PF6 in DMSO, 25 °C, 100 mV/s; for E1/2 more positive than Mz: in DMSO, relative to Mz
HeLa cells = test: Cytotoxicity assay; assay type: cell-based, human; details: Homo sapiens, HeLa, 48 h, read-out: toxicity in HeLa cells, pIC50 (mean ± SE) (converted)
[2] = Cyclic voltammetry in water pH 7.0; assay type: physicochemical; details: pH 7.0 phosphate buffer, 0.1 M KCl, 25 °C
[3] = system: G. lamblia (WB/C6, GS/M, 106, and 713); test: Antigiardial growth inhibition; assay type: cell-based, Giardia lamblia; details: IC50 in HeLa cells / EC50 in Giardia

E1/2 in DMSO (half-wave potential, 0/−1 reduction), mean ± SE [1] | Compound | other results
−1.512 ± 0.001 V vs Fc | Cc1ccccc1/C=C/c1ncc([N+](=O)[O-])n1C [compound 6, 1-Methyl-2-[(E)-2-(2-methylphenyl)vinyl]-5-nitro-1H-imidazole] | IC50 (HeLa cells): 93.3 µM; Ep in water (peak potential), mean ± SE [2]: −0.621 ± 0.001 V vs SCE
−1.516 ± 0.001 V vs Fc | Cc1cccc(/C=C/c2ncc([N+](=O)[O-])n2C)c1 [compound 7, 1-Methyl-2-[(E)-2-(3-methylphenyl)vinyl]-5-nitro-1H-imidazole] | Ep in water (peak potential), mean ± SE [2]: −0.635 ± 0.003 V vs SCE
−1.529 ± 0.001 V vs Fc | Cc1cc(C)c(/C=C/c2ncc([N+](=O)[O-])n2C)c(C)c1 [compound 9, 1-Methyl-2-[(E)-2-(2,4,6-trimethylphenyl)vinyl]-5-nitro-1H-imidazole] | IC50 (HeLa cells): 11 µM; E1/2 more positive than Mz [1]: 30–50 mV
−1.481 ± 0.001 V vs Fc | Cn1c([N+](=O)[O-])cnc1/C=C/c1ccccc1Br [compound 10, 2-[(E)-2-(2-Bromophenyl)vinyl]-1-methyl-5-nitro-1H-imidazole] | –
−1.497 ± 0.005 V vs Fc | Cn1c([N+](=O)[O-])cnc1/C=C/c1cccc(Br)c1 [compound 11, 2-[(E)-2-(3-Bromophenyl)vinyl]-1-methyl-5-nitro-1H-imidazole] | –
−1.486 ± 0.004 V vs Fc | Cn1c([N+](=O)[O-])cnc1/C=C/c1ccccc1Cl [compound 13, 2-[(E)-2-(2-Chlorophenyl)vinyl]-1-methyl-5-nitro-1H-imidazole] | –
−1.492 ± 0.002 V vs Fc | Cn1c([N+](=O)[O-])cnc1/C=C/c1cccc(Cl)c1 [compound 14, 2-[(E)-2-(3-Chlorophenyl)vinyl]-1-methyl-5-nitro-1H-imidazole] | –
−1.503 ± 0.001 V vs Fc | Cn1c([N+](=O)[O-])cnc1/C=C/c1ccc(Cl)cc1 [compound 15, 2-[(E)-2-(4-Chlorophenyl)vinyl]-1-methyl-5-nitro-1H-imidazole] | Ep in water (peak potential), mean ± SE [2]: −0.584 ± 0.001 V vs SCE
−1.469 ± 0.002 V vs Fc | Cn1c([N+](=O)[O-])cnc1/C=C/c1ccc(Cl)cc1Cl [compound 16, 2-[(E)-2-(2,4-Dichlorophenyl)vinyl]-1-methyl-5-nitro-1H-imidazole] | E1/2 more positive than Mz [1]: ~ 90 mV
−1.494 ± 0.004 V vs Fc | Cn1c([N+](=O)[O-])cnc1/C=C/c1cccc(I)c1 [compound 18, 2-[(E)-2-(3-Iodophenyl)vinyl]-1-methyl-5-nitro-1H-imidazole] | IC50 (HeLa cells): 31.6 µM
−1.580 ± 0.007 V vs Fc | COc1cccc(/C=C/c2ncc([N+](=O)[O-])n2C)c1 [compound 20, 2-[(E)-2-(3-Methoxyphenyl)vinyl]-1-methyl-5-nitro-1H-imidazole] | Ep in water (peak potential), mean ± SE [2]: −0.763 ± 0.001 V vs SCE
−1.487 ± 0.001 V vs Fc | Cn1c([N+](=O)[O-])cnc1/C=C/c1ccc(OC(F)(F)F)cc1 [compound 21, 1-Methyl-5-nitro-2-{(E)-2-[4-(trifluoromethoxy)phenyl]vinyl}-1H-imidazole] | –
−1.584 ± 0.005 V vs Fc | COc1ccc(/C=C/c2ncc([N+](=O)[O-])n2C)c(OC)c1OC [compound 22, 1-Methyl-5-nitro-2-[(E)-2-(2,3,4-trimethoxyphenyl)vinyl]-1H-imidazole] | Ep in water (peak potential), mean ± SE [2]: −0.757 ± 0.003 V vs SCE
−1.518 ± 0.003 V vs Fc | CCOC(OCC)c1ccc(/C=C/c2ncc([N+](=O)[O-])n2C)cc1 [compound 23, 2-{(E)-2-[4-(Diethoxymethyl)phenyl]vinyl}-1-methyl-5-nitro-1H-imidazole] | IC50 (HeLa cells): 97.7 µM
−1.512 ± 0.001 V vs Fc | Cn1c([N+](=O)[O-])cnc1/C=C/c1ccccc1-c1ccccc1 [compound 24, 2-[(E)-2-Biphenyl-2-ylvinyl]-1-methyl-5-nitro-1H-imidazole] | –
−1.502 ± 0.004 V vs Fc | Cn1c([N+](=O)[O-])cnc1/C=C/c1cccc2ccccc12 [compound 25, 1-Methyl-2-[(E)-2-(1-naphthyl)vinyl]-5-nitro-1H-imidazole] | selectivity ratio, IC50/EC50 [3]: 1,000
−1.493 ^d ± 0.004 V vs Fc | Cn1c([N+](=O)[O-])cnc1C(Br)C(Br)c1ccc(Br)cc1 (stereo not drawn) [compound 33, 2-[1,2-Dibromo-2-(4-bromophenyl)ethyl]-1-methyl-5-nitro-1H-imidazole] | –
−1.557 ± 0.001 V vs Fc | Cc1ccc(C(O)C(O)c2ncc([N+](=O)[O-])n2C)cc1 (stereo not drawn) [compound 34, 1-(1-Methyl-5-nitro-1H-imidazol-2-yl)-2-(4-methylphenyl)-ethane-1,2-diol] | –
−1.544 ± 0.001 V vs Fc | Cn1c([N+](=O)[O-])cnc1C(O)C(O)c1ccc(Br)cc1 (stereo not drawn) [compound 35, 1-(4-Bromophenyl)-2-(1-methyl-5-nitro-1H-imidazol-2-yl)-ethane-1,2-diol] | –
– | CC(=O)OC(c1ccc(Br)cc1)C(OC(C)=O)c1ncc([N+](=O)[O-])n1C (stereo not drawn) [compound 37, 1-(1-Methyl-5-nitro-1H-imidazol-2-yl)-2-(4-bromophenyl)-ethane-1,2-diyl Diacetate] | IC50 (HeLa cells): 97.7 µM
−1.593 ± 0.002 V vs Fc | Cn1c([N+](=O)[O-])cnc1CCc1ccccc1 [compound 40, 1-Methyl-5-nitro-2-(2-phenylethyl)-1H-imidazole] | –
−1.592 ± 0.003 V vs Fc | Cc1ccc(CCc2ncc([N+](=O)[O-])n2C)cc1 [compound 41, 1-Methyl-2-[2-(4-methylphenyl)ethyl]-5-nitro-1H-imidazole] | –
−1.592 ± 0.003 V vs Fc | Cn1c([N+](=O)[O-])cnc1CCc1ccc(Br)cc1 [compound 42, 2-[2-(4-Bromophenyl)ethyl]-1-methyl-5-nitro-1H-imidazole] | IC50 (HeLa cells): 97.7 µM

Compound | E1/2 in DMSO (half-wave potential, 0/−1 reduction), mean ± SE [1] | other results
Cn1cncc1[N+](=O)[O-] [1-methyl-5-NI, reference compound] | −1.557 V vs Fc and −1.557 ± 0.001 V vs Fc | –
Cc1ccc(/C=C/c2ncc([N+](=O)[O-])n2C)cc1 [compound 8, 1-Methyl-2-[(E)-2-(4-methylphenyl)vinyl]-5-nitro-1H-imidazole] | −1.522 ± 0.003 V vs Fc | selectivity ratio, IC50/EC50 [3]: >617
Cn1c([N+](=O)[O-])cnc1/C=C/c1cccs1 [compound 30, 1-Methyl-5-nitro-2-[(E)-2-(2-thienyl)vinyl]-1H-imidazole] | −1.528 ± 0.003 V vs Fc | selectivity ratio, IC50/EC50 [3]: 1,122; Ep in water (peak potential), mean ± SE [2]: −0.658 ± 0.001 V vs SCE
Cn1c([N+](=O)[O-])cnc1/C=C/c1ccsc1 [compound 31, 1-Methyl-5-nitro-2-[(E)-2-(3-thienyl)vinyl]-1H-imidazole] | −1.508 ± 0.002 V vs Fc | selectivity ratio, IC50/EC50 [3]: >1,023; Ep in water (peak potential), mean ± SE [2]: −0.595 ± 0.001 V vs SCE
